Data as given in patent publication US12324830B2 (priority 2018, dated 2025).
Numbered stars: 1 amine (or outer) side, 2 acyl side, 3 side chain; on linkers, the order of the positions; unused ones are H or OH. Bridge positions count the residues as written; N and C are the ends. Square brackets hold non-standard residues; d marks the D form. Peptide text beside a SMILES is read from it. * marks the point of attachment. hTyr(3S-OH,4S-OH,3'-OSO3H) = N[C@H](C(=O)O)[C@H](O)[C@@H](O)c1ccc(O)c(OS(=O)(=O)O)c1; Orn(4R-OH,5R-OH) = O=C([C@H](C[C@@H](O)[C@@H](O)N[*:3])N[*:1])[*:2]; Pro(3S-OH,4S-Me) = C[C@H]1CN[C@H](C(=O)O)[C@H]1O; X1 = CCCCCOc1ccc(-c2cc(-c3ccc(C(=O)*)cc3)no2)cc1; Gln(3R-OH) = NC(=O)C[C@@H](O)[C@H](N)C(=O)O; Hyp = O=C(O)[C@@H]1C[C@@H](O)CN1

System: C. auris
Design: species or system mice
Details: mouse, in vivo

With `CCCCCOc1ccc(-c2cc(-c3ccc(C(=O)N[C@H]4C[C@@H](O)[C@@H](O)NC(=O)[C@@H]5[C@@H](O)[C@@H](C)CN5C(=O)[C@H]([C@H](O)CC(N)=O)NC(=O)[C@H]([C@H](O)[C@@H](O)c5ccc(O)c(OS(=O)(=O)O)c5)NC(=O)[C@@H]5C[C@@H](O)CN5C(=O)[C@H]([C@@H](C)O)NC4=O)cc3)no2)cc1` [micafungin] (X1-[Orn(4R-OH,5R-OH)]T[Hyp][hTyr(3S-OH,4S-OH,3'-OSO3H)][Gln(3R-OH)][Pro(3S-OH,4S-Me)]; lactam 1-C) the survival was 20%.
